Assays:
[1] = system: cancer cell lines / MV-4-11 Myc reporter cell line; assay: Bromodomain cell assays of Example 8 (at least one of them); format: cell-based; conditions: Homo sapiens, MV4-11; at least one of the bromodomain cell assays described in Example 8
Experimental: (§1) In this study, we test compounds in different cancer cell lines. MV-4-11 and MOLM-13 are AML cell lines harboring a MLL-AF4 and MLL-AF9 translocation, respectively. MM.1S is a multiple myeloma cell line. SK—N-AS, IMR-32 and SK-N-BE(2) are neuroblastoma cell lines. IMR-32 and SK-N-BE(2) cell lines harbor MYCN amplifications.
(§2) MV-4-11, MM.1S, IMR-32, SK-N-AS and SK-N-BE(2) were obtained from ATCC (IL, USA) and MOLM-13 were purchased from DSMZ (Braunschweig, German). Cells are cultured as recommended by their sources. For growth inhibition studies 3000 cells are seeded in wells of a 96-well plate in 75 μL of culture media. After several hours, growth media containing compounds of formula (I) are added to the wells. Compound at a maximal concentration of 5 mM was serially diluted 1:3 for a total of 8 point titration with DMSO as a control. A 1 μL aliquot of each dilution point is added to 249 μL growth media and 75 μL is added to each well containing cells, providing 10 μM compound at the maximum concentration point. The final concentration of DMSO in all wells is 0.2%. Cells are incubated for 72 hours, and 25 μL of CellTiter Glo Reagent (Promega Ga., USA) is added to each well. Plates are shaken for approximately 10 minutes and chemiluminescent signal is read on Tecan microplate reader. The measured luminescence correlates directly with cell number.
(§3) All data is normalized to the mean of eight DMSO high control wells on each plate. A four parameter curve fit of the following formula was then applied: Y=a+(b−a)/(1+(x/c)^d) Where ‘a’ is the minimum, ‘b’ is the maximum, ‘c’ is the pIC50 and ‘d’ is the Hill slope. […] Myc Reporter Assay
In MV-4-11 cells, BRD2, BRD3 and BRD4 bind to the promoter region of MYC and regulate its transcription (Dawson M A et al. 2011). The literature bromodomain inhibitor iBET 151 could disrupt BRD4 recruitment to the MYC promoter and subsequently downregulate c-myc transcription (Dawson M A et al. 2011). Myc protein is a transcription factor that heterodimerizes with an obligatory partner Max and regulates the transcription of genes important for cell proliferation, differentiation, and apoptosis. This Myc reporter assay is used to monitor the inhibitory effect of compound of formula (I) on Myc dependent gene expression. Effective compounds could have potential therapeutic effects in Myc-driven tumors.
The MV-4-11 Myc reporter cell line is established by infecting MV-4-11 with VSV-g pseudotyped lentivirus expressing the firefly luciferase gene under the control of a minimal (m) CMV promoter and tandem repeats of the E-box transcriptional response element (TRE) (Qiagen IL, USA) and selecting cells in 2.5 μg/ml Puromycin.
The MV-4-11 Myc reporter cell line is maintained in Iscove's Modified Dulbecco's Medium containing 10% FBS, 1% PenStep and 2.5 μg/ml Puromycin. Cells are incubated at 37° C. in a humidified atmosphere with 5% CO2. 25,000 cells are seeded in 96-well plate in 50 μL of culture media. After several hours, growth media containing 2× compounds are added to the wells. Compound at a maximal concentration of 5 mM is serially diluted 1:3 for a total of 8 point titration. A 1 μl aliquot of each dilution point is added to 249 μl growth media and 50 μl is added to each well containing cells, providing 10 μM compound at the maximum concentration point. DMSO treated cells serve as a high control and 10 μM JQ1 treated cells serve as a low control. Cells are incubated for a further 24 hours and 25 μL of CellTiter-Fluo Reagent (Promega Ga., USA) is added to each well. Plates are shaken for approximately 2 minutes and incubated at 37° C. for 0.5 hour. Fluorescence signal is read in a Tecan Plate reader (λex=400 nm, λcm=505 nm). 25 μL of One-Glo Reagent (Promega Ga., USA) is then added to the plates. Chemiluminescent signal is read on Tecan plate reader. Values from the wells with no cells are subtracted from all samples for background correction. […]

MV-4-11 = assay: Oncology cell growth assay, MV-4-11 3 d growth; format: cell-based; conditions: Homo sapiens, MV4-11; MV-4-11 cells, 72 hours, CellTiter Glo; read-out: Cell activity (IC50 μM) MV-4-11 3 d-Growtb
Experimental: as §1, §2, §3

BRD4-BD12 = biological target: T1, BRD4-BD12 (Homo sapiens, UniProt O60885); assay: Alphascreen binding assay, BRD4(1 2) H4; conditions: BRD4 dual bromodomains with acetylated Histone 4 peptide, read-out: Biochemical activity (IC50 μM) BRD4(1 2) H4
T1 construct: dual bromodomains (BRD4-BD12 (1-477), BRD4-BD12 (1-472)); six-His tag (N); made in house; host or cells: E. coli BL21-CodonPlus (DE3)
Experimental: Binding of compounds of formula (I) with bromodomain 2, 3 4 was assessed using Alphascreen binding assay. The inhibition of the interaction between bromodomain and its acetylated target protein (Filippakopoulos P et al. 2012) was measured quantitatively using recombinant BRD proteins, an acetylated Histone 4 peptide and AlphaScreen™ technology. In absence of inhibition the BRD protein bound to AlphaScreen™ nickel chelate acceptor beads can interact with the acetylated Histone 4 peptide which is immobilized by the AlphaScreen™ Streptavidin coated beads. This interaction brings donor and acceptor beads in proximity. The close proximity allows the singlet oxygen produced by laser excitation of the donor beads to reach the acceptor beads and generate a luminescence signal. BRD inhibitors result in a decrease in the proximity signal through an inhibition of the BRD acetylated peptide interaction.
Recombinant human bromodomains containing the N-terminal bromodomain (BRD2-BD1 (71-194), BRD3-BD1 (24-144) and BRD4-BD1 (44-164)) or dual bromodomains (BRD4-BD12 (1-477), BRD4-BD12 (1-472)) were prepared and purified as described in protein expression and purification session. The peptide is human Histone H41-21K5AcK8AcK12AcK16Ac-Biotin (Anaspec Calif., USA).
Protocol for BRD2, BRD3 and BRD4 assay: All components are prepared in buffer composed of 50 mM HEPES pH 7.5, 100 mM NaCl, 0.01% BSA, 0.01% Triton X-100, 2 mM DTT. 7 μL of Bromodomain protein and 7 μL of peptide are added to wells containing 1 μL of various concentrations of test compounds of formula (I) or DMSO vehicle in an Alphaplate (PerkinElmer Ga., USA) and incubated for 1 hour at room temperature. 4 μL donor and acceptor bead mixture is then added with final concentrations of 7.5 μg/ml. 30 minutes after bead addition, Alpha signal is read on the Envision spectrometer (λEx 680 nm, λEm 520-620 nm). Final concentrations of bromodomain proteins and peptide are as shown below.
All data was normalized to the mean of 16 high and 16 low control wells on each plate. A four parameter curve fit of the following formula was then applied: Y=a+(b−a)/(1+(x/c)^d) Where ‘a’ is the minimum, ‘b’ is the maximum, ‘c’ is the pIC50 and ‘d’ is the Hill slope. Protein Expression and Purification
Recombinant human bromodomains containing the N-terminal bromodomain (BRD2-BD1 (71-194), BRD3-BD1 (24-144) and BRD4-BD1 (44-164)) or dual bromodomains (BRD4-BD12 (1-477), BRD4-BD12 (1-472)) were expressed in E. coli cells (in a modified pET vector) with an N-terminal six-His tag and purified using a combination of both IMAC (Ni-affinity) and size exclusion chromatography steps.
Recombinant BRD proteins were expressed using the E. coli strain BL21-CodonPlus (DE3) (Agilent Technologies CA, USA). Cells were grown in Terrific Broth (TB) media to an OD600 of 1.2 at 37° C. at which temperature was reduced to 25° C., protein was induced with 1.0 mM IPTG for 12-18 hours and harvested by centrifugation at 8000×g for 20 minutes. Cells were re-suspended in 0.1M KPO4 pH 8.0, 250 mM NaCl, 10% Glycerol, 0.75% NP-40, 25 mM Imidazole, 5 mM BME with 0.2 mg/ml Lysosyme, 2.0 mM PMSF, 25 μg/ml DNAse I, incubated on ice for 30 minutes and lyzed with a cell disruptor (MicroFluidics MA, USA). The lysate was clarified by centrifugation at 20,000×g for 2 hours. The protein was captured with Ni-NTA resin (Life Technologies, USA). Contaminating proteins were washed off with 25 mM Tris-HCl pH 8.3, 250 mM NaCl, 12% Glycerol and 50 mM Imidazole. Following 3× wash steps, protein was eluted step wise using a 50 mM HEPES pH 7.5, 500 mM NaCl and 400 mM Imidazole. The protein was further purified using Gel Filtration column 26/600 Superdex 200 (GE Biosciences N.J., USA) in 50 mM HEPES pH 7.5, 250 mM NaCl. The protein was aliquoted and flash-frozen in liquid Nitrogen.

Compound | IC50 [1] | IC50 (MV-4-11) | IC50 (BRD4-BD12)
Cc1noc(C)c1-c1ccc2c(-c3ccc(C(=O)O)cc3)nn([C@@H](C)c3ccccn3)c2c1 [Compound P-2013, 4-[6-(3,5-dimethylisoxazol-4-yl)-1-[(1S)-1-(2-pyridyl)ethyl]indazol-3-yl]benzoic acid] | < 10000 nM | ≤ 1 µM | ≤ 1 µM
Cc1noc(C)c1-c1ccc2c(-c3ccc(CC(=O)O)cc3)nn([C@@H](C)c3ccccn3)c2c1 [Compound P-2014, 2-[4-[6-(3,5-dimethylisoxazol-4-yl)-1-[(1S)-1-(2-pyridyl)ethyl]indazol-3-yl]phenyl]acetic acid] | < 10000 nM | ≤ 1 µM | ≤ 1 µM
[2H]C([2H])(C1CCC(F)(F)CC1)n1ccc2ncc(-c3c(C)noc3C)nc21 [Compound P-2038, 4-[5-[dideuterio-(4,4-difluorocyclohexyl)methyl]pyrrolo[2,3-b]pyrazin-3-yl]-3,5-dimethyl-isoxazole] | < 10000 nM | 1 to 10 µM | ≤ 1 µM
[2H]C([2H])(C1CCC(F)(F)CC1)n1cc(I)c2ncc(-c3c(C)noc3C)nc21 [Compound P-2039, 4-[5-[dideuterio-(4,4-difluorocyclohexyl)methyl]-7-iodo-pyrrolo[2,3-b]pyrazin-3-yl]-3,5-dimethyl-isoxazole] | < 10000 nM | ≤ 1 µM | ≤ 1 µM
[2H]C([2H])(C1CCC(F)(F)CC1)n1cc(-c2cnn(C)c2)c2ncc(-c3c(C)noc3C)nc21 [Compound P-2040, 4-[5-[dideuterio-(4,4-difluorocyclohexyl)methyl]-7-(1-methylpyrazol-4-yl)pyrrolo[2,3-b]pyrazin-3-yl]-3,5-dimethyl-isoxazole] | < 10000 nM | ≤ 1 µM | ≤ 1 µM
[2H]C([2H])(C1CCC(F)(F)CC1)n1ccc2ncc(-c3[nH]nnc3C)nc21 [Compound P-2041, 5-[dideuterio-(4,4-difluorocyclohexyl)methyl]-3-(4-methyl-1H-triazol-5-yl)pyrrolo[2,3-b]pyrazine] | < 10000 nM | 1 to 10 µM | 1 to 10 µM
[2H]C([2H])(C1CCC(F)(F)CC1)n1ccc2ncc(-c3nn(C(F)F)nc3C)nc21 [Compound P-2042] | < 10000 nM | 10 to 200 µM | 1 to 10 µM
[2H]C([2H])(C1CCC(F)(F)CC1)n1cc(-c2ccc(C(=O)OC)cc2)c2ncc(-c3c(C)noc3C)nc21 [Compound P-2043, methyl 4-[5-[dideuterio-(4,4-difluorocyclohexyl)methyl]-3-(3,5-dimethylisoxazol-4-yl)pyrrolo[2,3-b]pyrazin-7-yl]benzoate] | < 10000 nM | 1 to 10 µM | ≤ 1 µM
[2H]C([2H])(C1CCC(F)(F)CC1)n1cc(-c2ccc(C(=O)O)cc2)c2ncc(-c3c(C)noc3C)nc21 [Compound P-2044, 4-[5-[dideuterio-(4,4-difluorocyclohexyl)methyl]-3-(3,5-dimethylisoxazol-4-yl)pyrrolo[2,3-b]pyrazin-7-yl]benzoic acid] | < 10000 nM | ≤ 1 µM | ≤ 1 µM
COC(=O)c1ccc(-c2cn(C(c3ccccc3)c3ccccn3)c3nc(-c4c(C)noc4C)cnc23)cc1 (stereo not drawn) [Compound P-2045, methyl 4-[3-(3,5-dimethylisoxazol-4-yl)-5-[phenyl(2-pyridyl)methyl]pyrrolo[2,3-b]pyrazin-7-yl]benzoate] | < 10000 nM | ≤ 1 µM | ≤ 1 µM
Cc1noc(C)c1-c1cnc2c(-c3ccc(C(=O)O)cc3)cn(C(c3ccccc3)c3ccccn3)c2n1 (stereo not drawn) [Compound P-2046, 4-[3-(3,5-dimethylisoxazol-4-yl)-5-[phenyl(2-pyridyl)methyl]pyrrolo[2,3-b]pyrazin-7-yl]benzoic acid] | < 10000 nM | ≤ 1 µM | ≤ 1 µM
COC(=O)Cc1ccc(-c2cn(C(c3ccccc3)c3ccccn3)c3nc(-c4c(C)noc4C)cnc23)cc1 (stereo not drawn) [Compound P-2047, methyl 2-[4-[3-(3,5-dimethylisoxazol-4-yl)-5-[phenyl(2-pyridyl)methyl]pyrrolo[2,3-b]pyrazin-7-yl]phenyl]acetate] | < 10000 nM | ≤ 1 µM | ≤ 1 µM

Reference: patent US9856259B2, “Heterocyclic compounds and uses thereof” (Plexxikon Inc., priority 2014, dated 2018)
